# Test results as given in PMC11277489, “Novel Piperazine Derivatives of Vindoline as Anticancer Agents” (International Journal of Molecular Sciences, 2024).
# Like-named read-outs stand apart in the source and are kept apart here.
# Legend:
# Type in all cases: cell-based
# NCI-H460 = test: NCI60 five-dose screen, Non-small Cell Lung Cancer; conditions: Homo sapiens; NCI-H460, Non-small Cell Lung Cancer; five-dose screen; read-out: GI50
# MDA-MB-435 = test: NCI60 five-dose screen, Melanoma; conditions: Homo sapiens; MDA-MB-435, Melanoma; five-dose screen; read-out: GI50
# HS 578T = test: NCI60 five-dose screen, Breast Cancer; conditions: Homo sapiens; HS 578T, Breast Cancer; five-dose screen; read-out: GI50
# ACHN = test: NCI60 five-dose screen, Renal Cancer; conditions: Homo sapiens, Renal Cancer, five-dose screen, read-out: GI50
# MDA-MB231ATCC = test: NCI60 five-dose screen, Breast Cancer; conditions: Homo sapiens, MDA-MB-231; MDA-MB231ATCC, Breast Cancer; five-dose screen; read-out: GI50
# NCI/ADR-RES = test: NCI60 five-dose screen, Ovarian Cancer; conditions: Homo sapiens, Ovarian Cancer, five-dose screen, read-out: GI50
# SR = test: NCI60 five-dose screen, Leukemia; conditions: Homo sapiens, Leukemia, five-dose screen, read-out: GI50
# UO-31 = test: NCI60 five-dose screen, Renal Cancer; conditions: Homo sapiens; UO-31, Renal Cancer; five-dose screen; read-out: GI50
# [1] = test system: 60 human tumor cell lines (NCI60); test: NCI60 five-dose screen, whole panel and sub-panel means; conditions: read-out: GI50 Mean
# SNB-75 = test: NCI60 five-dose screen, CNS Cancer; conditions: Homo sapiens; SNB-75, CNS Cancer; five-dose screen; read-out: GI50
# OVCAR-3 = test: NCI60 five-dose screen, Ovarian Cancer; conditions: Homo sapiens; OVCAR-3, Ovarian Cancer; five-dose screen; read-out: GI50
# NCI-H226 = test: NCI60 five-dose screen, Non-small Cell Lung Cancer; conditions: Homo sapiens; NCI-H226, Non-small Cell Lung Cancer; five-dose screen; read-out: GI50
# K-562 = test: NCI60 five-dose screen, Leukemia; conditions: Homo sapiens, K562; K-562, Leukemia; five-dose screen; read-out: GI50
# HOP-92 = test: NCI60 five-dose screen, Non-small Cell Lung Cancer; conditions: Homo sapiens; HOP-92, Non-small Cell Lung Cancer; five-dose screen; read-out: GI50
# CAKI-1 = test: NCI60 five-dose screen, Renal Cancer; conditions: Homo sapiens; CAKI-1, Renal Cancer; five-dose screen; read-out: GI50
# COLO 205 = test: NCI60 five-dose screen, Colon Cancer; conditions: Homo sapiens; COLO 205, Colon Cancer; five-dose screen; read-out: GI50
# PC-3 = test: NCI60 five-dose screen, Prostate Cancer; conditions: Homo sapiens; PC-3, Prostate Cancer; five-dose screen; read-out: GI50
# BT-549 = test: NCI60 five-dose screen, Breast Cancer; conditions: Homo sapiens; BT-549, Breast Cancer; five-dose screen; read-out: GI50
# KM12 = test: NCI60 five-dose screen, Colon Cancer; conditions: Homo sapiens; KM12, Colon Cancer; five-dose screen; read-out: GI50
# SW-620 = test: NCI60 five-dose screen, Colon Cancer; conditions: Homo sapiens; SW-620, Colon Cancer; five-dose screen; read-out: GI50
# SK-MEL-28 = test: NCI60 five-dose screen, Melanoma; conditions: Homo sapiens; SK-MEL-28, Melanoma; five-dose screen; read-out: GI50
# SNB-19 = test: NCI60 five-dose screen, CNS Cancer; conditions: Homo sapiens; SNB-19, CNS Cancer; five-dose screen; read-out: GI50
# SK-MEL-2 = test: NCI60 five-dose screen, Melanoma; conditions: Homo sapiens; SK-MEL-2, Melanoma; five-dose screen; read-out: GI50
# HCT-116 = test: NCI60 five-dose screen, Colon Cancer; conditions: Homo sapiens; HCT-116, Colon Cancer; five-dose screen; read-out: GI50
# IGROV1 = test: NCI60 five-dose screen, Ovarian Cancer; conditions: Homo sapiens, IGROV-1; IGROV1, Ovarian Cancer; five-dose screen; read-out: GI50
# OVCAR-4 = test: NCI60 five-dose screen, Ovarian Cancer; conditions: Homo sapiens; OVCAR-4, Ovarian Cancer; five-dose screen; read-out: GI50
# UACC-62 = test: NCI60 five-dose screen, Melanoma; conditions: Homo sapiens; UACC-62, Melanoma; five-dose screen; read-out: GI50
# NCI-H322M = test: NCI60 five-dose screen, Non-small Cell Lung Cancer; conditions: Homo sapiens, Non-small Cell Lung Cancer, five-dose screen, read-out: GI50
# TK-10 = test: NCI60 five-dose screen, Renal Cancer; conditions: Homo sapiens; TK-10, Renal Cancer; five-dose screen; read-out: GI50
# CCRF-CEM = test: NCI60 five-dose screen, Leukemia; conditions: Homo sapiens, Leukemia, five-dose screen, read-out: GI50
# SN12C = test: NCI60 five-dose screen, Renal Cancer; conditions: Homo sapiens, Renal Cancer, five-dose screen, read-out: GI50
# DU-145 = test: NCI60 five-dose screen, Prostate Cancer; conditions: Homo sapiens; DU-145, Prostate Cancer; five-dose screen; read-out: GI50
# MALME-3M = test: NCI60 five-dose screen, Melanoma; conditions: Homo sapiens; MALME-3M, Melanoma; five-dose screen; read-out: GI50
# T-47D = test: NCI60 five-dose screen, Breast Cancer; conditions: Homo sapiens, T47D; T-47D, Breast Cancer; five-dose screen; read-out: GI50
# [2] = Homo sapiens, 60 cell, mean over all 60 cell lines
# [3] = Homo sapiens, mean over Breast Cancer panel
# [4] = Homo sapiens, mean over CNS Cancer panel
# [5] = Homo sapiens, mean over Colon Cancer panel
# [6] = Homo sapiens, mean over Leukemia panel
# [7] = Homo sapiens, mean over Melanoma panel
# [8] = Homo sapiens, mean over Non-small Cell Lung Cancer panel
# [9] = Homo sapiens, mean over Ovarian Cancer panel
# [10] = Homo sapiens, mean over Prostate Cancer panel
# [11] = Homo sapiens, mean over Renal Cancer panel
smiles,measurement,setting,value
CCC12C=CCN3CCC4(c5cc(NC(=O)CN6CCN(c7ccc(C(F)(F)F)cc7)CC6)c(OC)cc5N(C)C4C(O)(C(=O)OC)C1OC(C)=O)C32 (stereo not shown) [Compound 17],GI50,NCI-H460,6.46 µM
same,GI50,MDA-MB-435,1.95 µM
same,GI50,HS 578T,14.8 µM
same,GI50,ACHN,5.62 µM
same,GI50,MDA-MB231ATCC,11.2 µM
same,GI50,NCI/ADR-RES,6.03 µM
same,GI50,SR,2.95 µM
same,GI50,UO-31,5.13 µM
same,GI50,[1]; [2],5.53 µM
same,GI50,[1]; [3],6.11 µM
same,GI50,[1]; [4],4.01 µM
same,GI50,[1]; [5],4.31 µM
same,GI50,[1]; [6],2.75 µM
same,GI50,[1]; [7],5.89 µM
same,GI50,[1]; [8],7.29 µM
same,GI50,[1]; [9],6.48 µM
same,GI50,[1]; [10],4.88 µM
same,GI50,[1]; [11],6.01 µM
same,GI50,SNB-75,1.45 µM
same,GI50,OVCAR-3,2.88 µM
same,GI50,NCI-H226,6.46 µM
same,GI50,K-562,3.02 µM
same,GI50,HOP-92,2.57 µM
same,GI50,CAKI-1,2.63 µM
same,GI50,COLO 205,3.24 µM
same,GI50,PC-3,3.31 µM
same,GI50,BT-549,2.34 µM
same,GI50,KM12,3.72 µM
same,GI50,SW-620,5.75 µM
same,GI50,SK-MEL-28,5.89 µM
same,GI50,SNB-19,5.37 µM
same,GI50,SK-MEL-2,4.37 µM
same,GI50,HCT-116,3.72 µM
same,GI50,IGROV1,10 µM
same,GI50,OVCAR-4,3.89 µM
same,GI50,UACC-62,10.2 µM
same,GI50,NCI-H322M,15.1 µM
same,GI50,TK-10,4.57 µM
same,GI50,CCRF-CEM,3.24 µM
same,GI50,SN12C,7.76 µM
same,GI50,DU-145,6.46 µM
same,GI50,MALME-3M,14.8 µM
same,GI50,T-47D,2.19 µM
CCC12C=CCN3CCC4(c5cc(NC(=O)CN6CCN(C(c7ccc(F)cc7)c7ccc(F)cc7)CC6)c(OC)cc5N(C)C4C(O)(C(=O)OC)C1OC(C)=O)C32 (stereo not shown) [Compound 20],GI50,NCI-H460,3.16 µM
same,GI50,MDA-MB-435,3.89 µM
same,GI50,HS 578T,5.89 µM
same,GI50,ACHN,4.9 µM
same,GI50,MDA-MB231ATCC,9.12 µM
same,GI50,NCI/ADR-RES,4.47 µM
same,GI50,SR,2 µM
same,GI50,UO-31,5.25 µM
same,GI50,[1]; [2],6.27 µM
same,GI50,[1]; [3],4.52 µM
same,GI50,[1]; [4],4.4 µM
same,GI50,[1]; [5],3.4 µM
same,GI50,[1]; [6],2.38 µM
same,GI50,[1]; [7],5.6 µM
same,GI50,[1]; [8],15.7 µM
same,GI50,[1]; [9],5.3 µM
same,GI50,[1]; [10],5.39 µM
same,GI50,[1]; [11],5.23 µM
same,GI50,SNB-75,1.82 µM
same,GI50,OVCAR-3,4.37 µM
same,GI50,NCI-H226,6.31 µM
same,GI50,K-562,3.16 µM
same,GI50,HOP-92,5.01 µM
same,GI50,CAKI-1,3.16 µM
same,GI50,COLO 205,2.45 µM
same,GI50,PC-3,4.47 µM
same,GI50,BT-549,2.57 µM
same,GI50,KM12,3.98 µM
same,GI50,SW-620,3.98 µM
same,GI50,SK-MEL-28,12.3 µM
same,GI50,SNB-19,5.89 µM
same,GI50,SK-MEL-2,3.02 µM
same,GI50,HCT-116,3.09 µM
same,GI50,IGROV1,7.94 µM
same,GI50,OVCAR-4,3.31 µM
same,GI50,UACC-62,8.13 µM
same,GI50,NCI-H322M,12 µM
same,GI50,TK-10,7.59 µM
same,GI50,CCRF-CEM,2.88 µM
same,GI50,SN12C,4.9 µM
same,GI50,DU-145,6.31 µM
same,GI50,MALME-3M,8.13 µM
same,GI50,T-47D,3.55 µM
CC[C@]12C=CCN3CC[C@@]4(c5ccc(OC)cc5N(C)[C@H]4[C@@](O)(C(=O)OC)[C@@H]1OC(=O)CCCN1CCN(c4ccc(C(F)(F)F)cc4)CC1)[C@@H]32 [Compound 22],GI50,NCI-H460,1.86 µM
same,GI50,MDA-MB-435,1.7 µM
same,GI50,HS 578T,2.82 µM
same,GI50,ACHN,3.24 µM
same,GI50,MDA-MB231ATCC,2.82 µM
same,GI50,NCI/ADR-RES,2.29 µM
same,GI50,SR,1.7 µM
same,GI50,UO-31,1.86 µM
same,GI50,[1]; [2],< 4 µM
same,GI50,[1]; [3],2.51 µM
same,GI50,[1]; [4],2.47 µM
same,GI50,[1]; [5],2.02 µM
same,GI50,[1]; [6],1.77 µM
same,GI50,[1]; [7],1.98 µM
same,GI50,[1]; [8],2.88 µM
same,GI50,[1]; [9],3.05 µM
same,GI50,[1]; [10],2.67 µM
same,GI50,[1]; [11],2.59 µM
same,GI50,[1]; mean over all 60 cell lines,2.44 µM
same,GI50,SNB-75,1.66 µM
same,GI50,OVCAR-3,2.45 µM
same,GI50,NCI-H226,2.88 µM
same,GI50,K-562,1.41 µM
same,GI50,HOP-92,1.95 µM
same,GI50,CAKI-1,2.24 µM
same,GI50,COLO 205,1.78 µM
same,GI50,PC-3,2.45 µM
same,GI50,BT-549,3.02 µM
same,GI50,KM12,2.14 µM
same,GI50,SW-620,2.95 µM
same,GI50,SK-MEL-28,1.95 µM
same,GI50,SNB-19,3.55 µM
same,GI50,SK-MEL-2,2.19 µM
same,GI50,HCT-116,1.91 µM
same,GI50,IGROV1,2 µM
same,GI50,OVCAR-4,3.8 µM
same,GI50,UACC-62,3.31 µM
same,GI50,NCI-H322M,3.72 µM
same,GI50,TK-10,2.88 µM
same,GI50,CCRF-CEM,1.86 µM
same,GI50,SN12C,2.63 µM
same,GI50,DU-145,2.88 µM
same,GI50,MALME-3M,1.58 µM
same,GI50,T-47D,3.02 µM
